Source: PMC4186430, “Modeling of age-dependent amyloid accumulation and γ-secretase inhibition of soluble and insoluble Aβ in a transgenic mouse model of amyloid deposition” (Pharmacology Research & Perspectives, 2013)

What was measured:
[1] = Population pharmacokinetic modeling of MRK-560 plasma and brain exposure in mice; type: in vivo, C57BL/6, Tg2576 and Tg2576 wild-type littermate mice
Description: C57BL/6 female mice (Harlan Laboratories, Horst, The Netherlands), Tg2576 transgenic female mice (Taconics, Georgetown, NY), overexpressing human APP with the Swedish mutation (Hsiao et al. [1996]), and Tg2576 wild-type littermates were used in the experiments. The C57BL/6 and wild-type littermates were only used for pharmacokinetic PK sampling and analysis. The housing environment was humidity- and temperature-controlled with a constant 12-h light/dark cycle. The animals were kept in conventional housing (5–10 mice per cage) and had access to standard rodent chow and tap water ad libitum. The transgenic mice were aged at the local AstraZeneca (AZ) animal facilities. On the day of study, the mice were weighed. MRK-560 (synthesized in-house; AZ) or vehicle was administered by oral gavage. Three types of vehicles were used: (1) 1% MCC/NaCMC (Microcrystalline Cellulose/Sodiumcarboxymethyl Cellulose) +0.6% lipoid S100, (2) 20% HPβCD in 0.1 mol/L Meglumine, and (3) 40% HPβCD in 0.3 mol/L Meglumine. Observations of the animals’ health were made throughout all the experiments. Data from 23 MRK-560 studies were used in this analysis and details of all studies can be found in Table 1. For the AP analysis, data from vehicle and untreated Tg2576 mice from 48 additional (i.e., non-MRK-560) in-house studies were used. The additional dataset consisted of Aβ levels measured in Tg2576 mice of various ages, between 3.5 and 26 months at termination. Details of those data can be found in Appelkvist et al. ([2011]). In total, data from 71 preclinical studies were used.
Blood samples were collected by tail vein puncture in PK studies and occasionally in efficacy studies. At termination blood was withdrawn from anesthetized mice by heart puncture into prechilled microtainer Ethylenediaminetetraacetic acid tubes. Blood samples were immediately put on ice and centrifuged for 10 min at ∼3000g at +4°C within 20 min from sampling. Plasma was transferred to prechilled polypropylene tubes. The tubes were immediately frozen on dry ice and stored at −70°C until analysis.
Plasma samples and standards were precipitated with acetonitrile containing internal standard. After centrifugation, supernatant was transferred to a new 96-well plate, diluted with mobile phase, and injected on the LC/MS/MS system (Waters Corporation, Sollentuna, Sweden) (Bueters et al. [2011]). For the determination of the compound concentration in the brain, frozen mouse brains were weighed, and an ice-cold Ringer solution (two volumes per weight) was added. The brains were sonicated using a Multi-element probe SONICS VCX 500 (Newtown, CT). To 50 μL homogenized tissue 150 μL ice-cold acetonitrile containing an internal standard was added in a precipitation plate (96-well PP-plate; Waters, Milford, MA). After mixing and centrifugation (4°C, 4000 rpm, 20 min), supernatant was transferred to an analysis plate (PP-plate, Waters) and analyzed by LC/MS/MS (Borgegård et al. [2011]). As the brains were not perfused before exposure analysis, a volume of 1.3% of blood in the brain and the concentration of compound in plasma were used to calculate the brain concentration (Richard [1968]; Park and Sinko [2005]).
In the pharmacokinetic analysis, one- and two-compartmental first-order models were evaluated to fit the MRK-560 concentration–time profiles in plasma and brain. Separate absorption rate constants were estimated for oral and subcutaneous route of administration. A dose-dependent bioavailability was assessed and was modeled using the function shown in equation (1): [drawing 1] (1)
An instantaneous distribution of the unbound compound between plasma and brain was assumed. The brain exposure was modeled using equation (2): [drawing 2] (2) where CP was the plasma concentration, θ4 was the brain:plasma concentration ratio, and fu,pl and fu,br were the plasma and brain unbound fraction, respectively. […]

[2] = Fraction unbound in brain, rat brain slice uptake method; type: in vitro ADME, Sprague-Dawley rats; conditions: male, Sprague-Dawley, brain slices (coronal slices of striatal areas, 300 μm), observed, 1 μmol/L compound, 37°C, read-out: fu,br (brain unbound fraction)
Procedure: Determination of the fraction of compound unbound in the brain was determined in a rat brain slice uptake method (Fridén et al. [2009]; Borgegård et al. [2011]). In short, male Sprague-Dawley rats were decapitated under isoflurane anesthesia. The brains were immersed in an ice-cold oxygenated extracellular fluid (ECF) buffer. Coronal slices of the striatal areas (300 μm) were preincubated in a 10 mL ECF buffer for 5 min at 37°C followed by incubation with 1 μmol/L compound in an ECF buffer for 5 h at 37°C under 5% CO2 in oxygen. After incubation, brain slices were weighed and homogenized in nine volumes (w/v) of ECF buffer. The slice homogenates and ECF buffer were stored at −20°C prior to analysis. To 50 μL homogenized tissue, 150 μL ice-cold acetonitrile containing an internal standard was added in a precipitation plate. After mixing and centrifugation (4°C, 4000 rpm, 20 min), supernatant was transferred to the analysis plate and analyzed by LC/MS/MS.

Brain:plasma ratio ([1]; estimated total brain:plasma ratio, constant over 0.01-15 μmol/L): 0.31
Kp ([1]; female, C57BL/6, Tg2576, Tg2576 wild-type littermates, mouse, brain, estimated total brain:plasma ratio, constant over 0.01-15 μmol/L): 0.3
clearance ([1]; female, C57BL/6, Tg2576, Tg2576 wild-type littermates, mouse, plasma, two-compartmental model): 2 mL/min/kg
differences in pharmacokinetics among C57BL/6, Tg2576 and Tg2576 wild-type littermates ([1]; mouse, in vivo): No differences
Q ([1]; two-compartmental model): 127 mL/min/kg
V2 ([1]; two-compartmental model): 0.28 L/kg
V3 ([1]; two-compartmental model): 2.9 L/kg
KA (oral) ([1]; two-compartmental model, absorption rate constant, oral): 0.41 h⁻¹
KA (s.c.) ([1]; two-compartmental model, absorption rate constant, s.c.): 0.81 h⁻¹
plasma exposure with vehicles 2 and 3 compared to vehicle 1 ([1]; vehicles 2, 3 = HPβCD/Meglumine, vehicle 1 = 1% MCC/NaCMC+0.6% lipoid S100): fourfold higher
fraction unbound at 5 h, 1 μmol/L [2]: 0.0067
Compound: O=S(=O)(NC1CCC(c2cc(F)ccc2F)(S(=O)(=O)c2ccc(Cl)cc2)CC1)C(F)(F)F (stereo not drawn) [MRK-560, N-[cis-4-[(4-chlorophenyl)-sulfonyl]-4-(2,5-difluorophenyl)cyclohexyl]-1,1,1-trifluoromethanesulfonamide]
